Assay results published in ChEMBL document CHEMBL5727342, “Imidazo[4,5-C]pyridine and pyrrolo[2,3-C]pyridine derivatives as SSAO inhibitors” (2018).

Target: Voltage-gated inwardly rectifying potassium channel KCNH2 (Homo sapiens, UniProt Q12809)
Test: Electrophysiological recordings were made from a Chinese Hamster Lung cell line stably expressing the full length hERG channel. Single cell ion currents were measured in the perforated patch clamp configuration (100 ug/mL amphoterocin) at room temperature using an IonWorks Quattro instrument. The internal solution contained 140 mM KCl, 1 mM MgCl2, 1 mM EGTA and 20 mM HEPES and was buffered to pH 7.3. […] This sequence was repeated 5 times at a frequency of 0.25 Hz. […] Compounds were incubated for 6-7 min prior to a second measurement of the hERG signal using an identical pulse train.

Sequence of Voltage-gated inwardly rectifying potassium channel KCNH2 (Q12809 whole entry): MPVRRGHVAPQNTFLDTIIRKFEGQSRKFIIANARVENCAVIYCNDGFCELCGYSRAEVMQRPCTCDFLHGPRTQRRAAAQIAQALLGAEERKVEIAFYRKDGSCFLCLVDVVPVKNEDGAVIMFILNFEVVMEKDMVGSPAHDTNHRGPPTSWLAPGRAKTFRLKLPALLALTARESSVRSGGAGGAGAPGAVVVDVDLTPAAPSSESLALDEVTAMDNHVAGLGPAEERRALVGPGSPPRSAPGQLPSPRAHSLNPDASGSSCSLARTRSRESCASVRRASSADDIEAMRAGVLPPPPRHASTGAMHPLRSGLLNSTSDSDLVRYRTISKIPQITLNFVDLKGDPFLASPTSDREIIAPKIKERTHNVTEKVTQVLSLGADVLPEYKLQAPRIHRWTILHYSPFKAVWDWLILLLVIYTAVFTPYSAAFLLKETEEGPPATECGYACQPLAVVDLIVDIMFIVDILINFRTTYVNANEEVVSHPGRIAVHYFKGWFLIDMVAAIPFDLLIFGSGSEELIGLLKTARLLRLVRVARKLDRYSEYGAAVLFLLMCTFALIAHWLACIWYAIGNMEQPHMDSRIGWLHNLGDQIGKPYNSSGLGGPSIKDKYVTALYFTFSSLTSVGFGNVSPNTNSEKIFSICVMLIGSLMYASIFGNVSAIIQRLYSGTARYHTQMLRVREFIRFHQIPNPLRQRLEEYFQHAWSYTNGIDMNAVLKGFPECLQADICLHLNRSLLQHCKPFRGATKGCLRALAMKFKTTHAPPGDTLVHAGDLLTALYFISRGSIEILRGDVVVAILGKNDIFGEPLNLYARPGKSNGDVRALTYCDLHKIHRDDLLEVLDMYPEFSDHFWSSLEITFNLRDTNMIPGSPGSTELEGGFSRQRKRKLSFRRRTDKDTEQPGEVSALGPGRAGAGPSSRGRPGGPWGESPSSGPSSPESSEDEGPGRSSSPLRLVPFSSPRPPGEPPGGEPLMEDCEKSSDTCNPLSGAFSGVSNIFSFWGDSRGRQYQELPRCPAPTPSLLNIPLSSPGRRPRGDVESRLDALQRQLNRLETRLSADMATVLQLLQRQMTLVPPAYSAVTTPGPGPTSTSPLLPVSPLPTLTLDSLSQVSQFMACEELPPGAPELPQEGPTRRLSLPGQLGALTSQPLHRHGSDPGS

Clc1ccc(-n2c(-c3ccncc3)nc3ccncc32)cc1
IC50: in the range around 5.5 µM
